According to patent US9481648B2, “Kinase inhibitors” (Respivert Limited, priority 2013, dated 2016):

Tests used:
[1] = target: Syk (Homo sapiens (Human), UniProt P43405); assay: Syk enzyme inhibition (FRET, Z-LYTE); type: biochemical
Procedure: (§1) The enzyme inhibitory activities of compounds disclosed herein are determined by FRET using synthetic peptides labelled with both donor and acceptor fluorophores (Z-LYTE, Invitrogen Ltd., Paisley, UK).
(§2) The relevant enzyme (3000 ng/mL or 2000 ng/mL respectively, 2.5 μL) is incubated with the test compound (either 1 μg/mL, 0.1 μg/mL, 0.01 μg/mL, or 0.001 μg/mL, 2.5 μL each) for 2 hr at RT. The FRET peptides (8 μM, 2.5 μL), and appropriate ATP solutions (2.5 μL, 800 μM for c-Src, and 60 μM ATP for Syk) are then added to the enzymes/compound mixtures and the mixture incubated for 1 hr. Development reagent (protease, 5 μL) is added for 1 hr prior to detection in a fluorescence microplate reader (Varioskan® Flash, ThermoFisher Scientific).
(§3) In all cases, the site-specific protease cleaves non-phosphorylated peptide only and eliminates the FRET signal. Phosphorylation levels of each reaction are calculated using the ratio of coumarin emission (donor) over fluorescein emission (acceptor), for which high ratios indicate high phosphorylation and low ratios indicate low phosphorylation levels.

[2] = target: c-Src (Homo sapiens (Human), UniProt P12931); assay: c-Src enzyme inhibition (FRET, Z-LYTE); type: biochemical
Sequence of c-Src (P12931 whole entry, looked up): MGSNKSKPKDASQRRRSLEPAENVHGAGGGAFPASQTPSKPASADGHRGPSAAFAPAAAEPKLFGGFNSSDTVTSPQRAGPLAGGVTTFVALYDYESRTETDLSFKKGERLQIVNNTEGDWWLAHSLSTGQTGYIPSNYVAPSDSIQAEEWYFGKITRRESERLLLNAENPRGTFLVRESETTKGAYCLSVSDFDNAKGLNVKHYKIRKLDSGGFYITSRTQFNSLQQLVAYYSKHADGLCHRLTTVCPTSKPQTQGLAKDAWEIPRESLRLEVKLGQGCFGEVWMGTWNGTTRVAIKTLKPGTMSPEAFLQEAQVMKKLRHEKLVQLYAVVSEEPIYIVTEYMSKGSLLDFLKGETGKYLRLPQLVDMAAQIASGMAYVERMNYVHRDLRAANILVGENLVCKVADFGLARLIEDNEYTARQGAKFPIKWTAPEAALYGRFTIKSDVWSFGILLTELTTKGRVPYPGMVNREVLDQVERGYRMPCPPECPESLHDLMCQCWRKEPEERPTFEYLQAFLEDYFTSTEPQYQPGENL
Procedure: as §1, §2, §3

[3] = target: GSK 3α (Homo sapiens (Human), UniProt P49840); assay: GSK 3α enzyme inhibition (FRET, Z-LYTE; Method 2); type: biochemical; conditions: read-out: IC50 Values for Enzyme Inhibition GSK3α
Sequence of GSK 3α (P49840 whole entry): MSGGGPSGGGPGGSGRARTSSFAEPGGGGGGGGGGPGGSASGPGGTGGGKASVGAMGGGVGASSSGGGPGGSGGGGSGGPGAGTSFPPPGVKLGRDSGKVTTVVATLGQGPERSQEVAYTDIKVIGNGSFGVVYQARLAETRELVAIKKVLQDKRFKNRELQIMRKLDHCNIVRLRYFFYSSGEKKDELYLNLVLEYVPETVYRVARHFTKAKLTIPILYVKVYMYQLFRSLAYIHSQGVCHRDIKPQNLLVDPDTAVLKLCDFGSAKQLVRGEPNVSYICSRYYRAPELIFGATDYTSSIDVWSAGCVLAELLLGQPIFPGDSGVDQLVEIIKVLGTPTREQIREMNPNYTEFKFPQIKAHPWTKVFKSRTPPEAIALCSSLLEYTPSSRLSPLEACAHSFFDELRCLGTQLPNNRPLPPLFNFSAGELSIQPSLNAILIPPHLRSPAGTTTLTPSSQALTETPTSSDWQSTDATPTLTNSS
Procedure: as §1
The inhibitory activities of compounds of the invention against the GSK 3α enzyme isoform (Invitrogen), are evaluated by determining the level of activation I phosphorylation of the target peptide. The GSK3-α protein (500 ng/mL, 2.5 μL) is mixed with the test compound (2.5 μL at either 4 μg/mL, 0.4 μg/mL, 0.04 μg/mL, or 0.004 μg/mL) for 2 hr at RT. The FRET peptide (8 μM, 2.5 μL), which is a phosphorylation target for GSK3α, and ATP (40 μM, 2.5 μL) are then added to the enzyme\compound mixture and the resulting mixture incubated for 1 hr. Development reagent (protease, 5 μL) is added for 1 hr prior to detection in a fluorescence microplate reader (Varioskan® Flash, ThermoFisher Scientific).
as §3
This method follows the same steps as Method 1 above, but utilises a shorter period of mixing of the test compound (105 minutes instead of 2 hours) with the GSK3-α protein. In addition, the concentrations of test compound employed are either 10 μg/mL, 1 μg/mL, 0.1 μg/mL, or 0.01 μg/mL

[4] = target: p38 MAPKα (MAPK14) (Homo sapiens (Human), UniProt Q16539); assay: p38 MAPKα enzyme inhibition (FRET, Z-LYTE; Method 2); type: biochemical
Sequence of p38 MAPKα (MAPK14) (Q16539 whole entry): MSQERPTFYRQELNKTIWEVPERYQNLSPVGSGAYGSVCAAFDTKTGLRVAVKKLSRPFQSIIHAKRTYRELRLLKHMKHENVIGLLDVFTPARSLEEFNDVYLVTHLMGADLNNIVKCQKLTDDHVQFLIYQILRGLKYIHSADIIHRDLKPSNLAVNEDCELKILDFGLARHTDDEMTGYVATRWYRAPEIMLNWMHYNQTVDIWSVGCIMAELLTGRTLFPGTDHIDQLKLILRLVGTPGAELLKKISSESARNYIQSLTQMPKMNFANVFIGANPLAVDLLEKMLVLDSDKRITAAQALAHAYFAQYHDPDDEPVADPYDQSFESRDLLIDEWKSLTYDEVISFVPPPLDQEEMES
Procedure: as §1
The inhibitory activities of test compounds against the p38 MAPKα isoform (MAPK14: Invitrogen) are evaluated indirectly by determining the level of activation\phosphorylation of the down-stream molecule, MAPKAP-K2. The p38 MAPKα protein (80 ng/mL, 2.5 μL) is mixed with the test compound (2.5 μL of either 4 μg/mL, 0.4 μg/mL, 0.04 μg/mL or 0.004 μg/mL) for 2 hr at RT. […] The mixture is incubated for 1 hr at RT. Development reagent (protease, 5 μL) is added for 1 hr prior to detection in a fluorescence microplate reader (Vanoskan® Flash, ThermoFisher Scientific).
as §3

[5] = test system: β-catenin in d-U937 cells; assay: Accumulation of β catenin in d-U937 cells (assay m); type: cell-based, human
Procedure: U937 cells, a human monocytic cell line, are differentiated into macrophage-type cells by incubation with PMA (100 ng/mL) for between 48 to 72 hr. The cells are then incubated with either final concentrations of test compound or vehicle for 18 hr. The induction of β-catenin by the test compounds is stopped by replacing the media with 4% formaldehyde solution. Endogenous […] is neutralised by incubating with quenching buffer (100 μL, 0.1% sodium azide, 1% H2O2 in PBS with 0.05% Tween-20) for 20 min. The cells are washed with washing buffer (200 μL; PBS containing 0.05% Tween-20) and incubated with blocking solution (200 μL; 5% milk in PBS) for 1 hr, re-washed with washing buffer (200 μL) and then incubated overnight with anti-β-catenin antibody solution (50 μL) in 1% BSA/PBS (BD, Oxford, UK).
After washing with washing buffer (3×200 μL; PBS containing 0.05% Tween-20), cells are incubated with a HRP-conjugated secondary antibody solution (100 μL) in 1% BSA/PBS (Dako, Cambridge, UK) and the resultant signal is determined colourimetrically (OD: 450 nm with a reference wavelength of 655 nm) using TMB substrate (50 μL; R&D Systems, Abingdon, UK). This reaction is stopped by addition of 1N H2SO4 solution (50 μL). Cells are then washed with washing buffer and 2% crystal violet solution (50 μL) is applied for 30 min. After washing with washing buffer (3×200 μL), 1% SDS (100 μL) is added to each well and the plates are shaken lightly for 1 hr prior to measuring the absorbance at 595 nm (Varioskan® Flash, Thermo-Fisher Scientific).
The measured OD450-655 readings are corrected for cell number by dividing the OD450-655 by the OD595 readings.

Row | Compound | IC50 [1] [nM] | IC50 [2] [nM] | IC50 [3] [nM] | IC50 [4] [nM] | % β-catenin induction ([5]; test compound 1 μg/mL) [%] | % β-catenin induction ([5]; test compound 5 μg/mL) [%] | % β-catenin induction ([5]; test compound 10 μg/mL) [%]
1 | C#Cc1cc(Nc2nccc(Oc3ccc(NC(=O)Nc4cc(C(C)(C)C)cc(C(=O)NC)c4OC)c4ccccc34)n2)cc(C(=O)NCCN2CCOCC2)c1 [Example 9] | 27 | 8 | 1630 | – | 32 | 48 | 67
2 | CNC(=O)c1cc(NC(=O)Nc2ccc(Oc3ccnc(Nc4cc(OC)cc(OCCOCCOCCOC)c4)n3)c3ccccc23)cc(C(C)(C)C)c1 [Example 23, 3-(tert-Butyl)-5-(3-(4-((2-((3-methoxy-5-(2-(2-(2-methoxyethoxy)ethoxy)ethoxy)phenyl)-amino)pyrimidin-4-yl)oxy)naphthalen-1-yl)ureido)-N-methylbenzamide] | 147 | – | 733 | – | −4 | 10 | 9
3 | COCCOCCOCCOc1cc(Nc2nccc(Oc3ccc(NC(=O)Nc4cc(C(C)(C)C)cc(C(=O)NC5CC5)c4OC)c4ccccc34)n2)cc(OC)c1 [Example 33, 5-(tert-Butyl)-N-cyclopropyl-2-methoxy-3-(3-(4-((2-((3-methoxy-5-(2-(2-(2-methoxy-ethoxy)ethoxy)ethoxy)phenyl)amino)pyrimidin-4-yl)oxy)naphthalen-1-yl)ureido)-benzamide] | 28 | 11 | 828 | – | – | – | –
4 | COCCOCCOCCOc1cc(Nc2nccc(Oc3ccc(NC(=O)Nc4cc(C(C)(C)C)cc(C(=O)NCCO)c4OC)c4ccccc34)n2)cc(OC)c1 [Example 35, 5-(tert-Butyl)-N-(2-hydroxyethyl)-2-methoxy-3-(3-(4-((2-((3-methoxy-5-(2-(2-(2-methoxy-ethoxy)ethoxy)ethoxy)phenyl)amino)pyrimidin-4-yl)oxy)naphthalen-1-yl)ureido)-benzamide] | 48 | 13 | 597 | 120 | – | – | –
5 | COCCOCCOCCOc1cc(Nc2nccc(Oc3ccc(NC(=O)Nc4cc(C(C)(C)C)cc(C(=O)NCC(=O)OC)c4OC)c4ccccc34)n2)cc(OC)c1 [Example 37, Methyl 2-(5-(tert-butyl)-2-methoxy-3-(3-(4-((2-((3-methoxy-5-(2-(2-(2-methoxyethoxy)-ethoxy)ethoxy)phenyl)amino)pyrimidin-4-yl)oxy)naphthalen-1-yl)ureido)benzamido)-acetate] | 43 | 12 | 1520 | – | 4 | 38 | 46
6 | COc1c(NC(=O)Nc2ccc(Oc3ccnc(NCc4ccccn4)c3)c3ccccc23)cc(C(C)(C)C)cc1C(=O)NC1COC1 [Example 80, 5-(tert-Butyl)-2-methoxy-N-(oxetan-3-yl)-3-(3-(4-((2-((pyridin-2-ylmethyl)amino)pyridin-4-yl)oxy)naphthalen-1-yl)ureido)benzamide] | – | 968 | 1250 | 18 | 5 | 38 | 47

Further lines, with some results ahead:

Row | IC50 [1] [nM] | IC50 [2] [nM] | IC50 [3] [nM] | IC50 [4] [nM] | Compound | % β-catenin induction ([5]; test compound 1 μg/mL) [%] | % β-catenin induction ([5]; test compound 5 μg/mL) [%] | % β-catenin induction ([5]; test compound 10 μg/mL) [%]
7 | 1160 | 22 | 8330 | 142 | COCCOCCOCCOc1cc(Nc2nccc(Oc3ccc(NC(=O)Nc4cc(C(C)(C)C)cc(NS(C)(=O)=O)c4-c4ccccc4)c4ccccc34)n2)cc(OC)c1 [83(a), N-(4-(tert-butyl)-6-(3-(4-((2-((3-methoxy-5-(2-(2-(2-methoxyethoxy)ethoxy)ethoxy)phenyl)-amino)pyrimidin-4-yl)oxy)naphthalen-1-yl)ureido)-[1,1′-biphenyl]-2-yl)methane-sulfonamide] | – | – | –
8 | – | – | 738 | – | COc1cc(Nc2nccc(Oc3ccc(NC(=O)Nc4cc(C(C)(C)C)cc(NS(C)(=O)=O)c4OC)c4ccccc34)n2)cc(OCCOCCOCCO)c1 [83(c), N-(5-(tert-butyl)-3-(3-(4-((2-((3-(2-(2-(2-hydroxyethoxy)ethoxy)ethoxy)-5-methoxyphenyl)-amino)pyrimidin-4-yl)oxy)naphthalen-1-yl)ureido)-2-methoxyphenyl)methanesulfonamide] | 4 | 31 | 33
9 | – | – | 12600 | 275 | COc1c(NC(=O)Nc2ccc(Oc3ccnc(Nc4ccccc4)c3)c3ccccc23)cc(C(C)(C)C)cc1C(=O)NC1CCOCC1 [84(a), 3-[[4-[(2-Anilino-4-pyridyl)oxy]-1-naphthyl]carbamoylamino]-5-tert-butyl-2-methoxy-N-tetrahydropyran-4-yl-benzamide] | – | – | –
10 | – | 45 | 12700 | 37 | C#Cc1cc(Nc2nccc(Oc3ccc(NC(=O)Nc4cc(F)cc(N5CCOCC5)c4)c4ccccc34)n2)cc(C(=O)NCCN2CCOCC2)c1 [Example 2, 3-Ethynv-5-((4-((4-(3-(3-fluoro-5-morpholinophenyl)ureido)naphthalen-1-yl)oxy)-pyrimidin-2-yl)amino)-N-(2-morpholinoethyl)benzamide] | −6 | −4 | –
11 | 237 | – | 905 | – | COc1cc(Nc2nccc(Oc3ccc(NC(=O)Nc4cc(C(C)(C)C)cc(NS(C)(=O)=O)c4OC)c4ccccc34)n2)cc(OCCOCCOCCN(C)C)c1 [Example 15, N-(5-(tert-Butyl)-3-(3-(4-((2-((3-(2-(2-(2-(dimethylamino)ethoxy)ethoxy)ethoxy)-5-methoxyphenyl)amino)pyrimidin-4-yl)oxy)naphthalen-1-yl)ureido)-2-methoxyphenyl)-methanesulfonamide] | −2 | −6 | −17
12 | 1320 | 44 | 10600 | 32 | C#Cc1cc(Nc2cc(Oc3ccc(NC(=O)Nc4cc(C(N)=O)cc(C(C)(C)C)c4)c4ccccc34)ccn2)cc(C(=O)NCCOCCOCCOC)c1 [Example 62, 3-((4-((4-(3-(3-(tert-Butyl)-5-carbamoylphenyl)ureido)naphthalen-1-yl)oxy)vridin-2-yl)amino)-5-ethynyl-N-(2-(2-(2-methoxyethoxy)ethoxy)ethyl)benzamide] | – | – | –
13 | 1160 | 206 | 2630 | – | COCCOCCOCCS(=O)(=O)c1cc(Nc2cc(Oc3ccc(NC(=O)Nc4cc(C(C)(C)C)cc(NS(C)(=O)=O)c4OC)c4ccccc34)ccn2)cc(OC)c1 [Example 85(y), 1-[5-tert-Butyl-3-(methanesulfonamido)-2-methoxyphenyl]-3-[4-[2-[3-methoxy-5-[2-[2-(2-methoxyethoxy)ethoxy]ethylsulfonyl]anilino]pyridin-4-yl]oxy-1-naphthyl]urea] | – | – | –
